# Assay results taken from patent publication US11091515B2, “Polypeptide derived from CAP1 and pharmaceutical composition comprising same as effective ingredient” (Seoul National University Hospital, priority 2017, dated 2021).
# Where no end group is shown, it is not given here.
# Legend:
# [1] = target: T1, binding of resistin and CAP1 (Homo sapiens, UniProt Q9HD89); experiment: In vitro pull down assay of mFc-hResistin with CAP1 from THP-1 cell lysates (western blot with CAP1 antibody); settings: for inhibition of binding of resistin and CAP1: each peptide at 50 μM, mFC-hResistin 1 μg/ml
# T1 construct: host or cells: CAP1: endogenous, THP-1 cell lysate
# T1 sequence (Q9HD89 19-108): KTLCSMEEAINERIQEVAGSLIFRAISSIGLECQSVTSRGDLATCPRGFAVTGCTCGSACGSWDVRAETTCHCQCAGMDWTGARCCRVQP
# Protocol: THP-1 cells were lysed with lysis buffer (20 mM Tris pH 7.5, 150 mM NaCl, 1% Triton X-100, 0.25% sodium deoxycholate, 1 mM EDTA, 1 Mm NaF, 1 mM Na3VO4, and, protease inhibitor cocktail) to extract proteins. mFc-hResistin (0.5 ug) protein and VS_peptide (SEQ ID NO: 2) at 10 μM, 100 μM, and 500 μM were added to the extracted THP-1 protein (500 μg), followed by incubation at 4° C. overnight. mFC beads (20 μl) were added, and the protein complexes were pulled down at 4° C. for 3 hours, and then washed three times with lysis buffer. Then, SDS-PAGE sample buffer containing β-mercaptoethanol was added, followed by boiling at 100° C. for 5 minutes, and then a supernatant was obtained through centrifugation. It was investigated by western blotting using the hCAP1 antibody and mFc-HRP antibody whether the binding of hCAP1 and mFc-hResistin was inhibited by VS_peptide. Specifically, THP-1 cell lysates were treated with 1 μg/ml of mFC-hResistin, treated with VS_peptide (SEQ ID NO: 2) at 10 μM, 100 μM, and 500 μM each, and then pulled down using Fc beads. The proteins bound to beads were separated by SDS-PAGE, and subjected to western blotting using the CAP1 antibody. THP-1 cell lysates were treated with mFC-hResistin (1 μg/ml) and each of the peptides of SEQ ID NOS: 1 to 7 at 50 μM each, and pulled down using Fc beads. Thereafter, the proteins bound to Fc beads were separated by SDS-PAGE, and then subjected to western blotting using the CAP1 antibody.
# [2] = test system: AMPK (phosphorylation of AMPK and ACC, LDLR expression); experiment: AMPK activity by western blot in HepG2 cells treated with AICAR and resistin; assay type: cell-based; settings: peptide 50 μM, compared with addition of only resistin
# Protocol: To investigate the effect of VS_peptide (SEQ ID NO: 2) on AMPK activity, AMPK phosphorylation was compared between the addition of VS_peptide (SEQ ID NO: 2) and the addition of AA_peptide (SEQ ID NO: 3). To investigate the effect of VS_peptide (SEQ ID NO: 2) on AMPK activity, HepG2 cells were treated with AICAR to activate AMPK and treated with resistin, and the cells were treated with VS_peptide (SEQ ID NO: 2) and AA_peptide (SEQ ID NO: 3) at 50 μM each. The western blotting was performed to investigate AMPK activity in HepG2 cells through the phosphorylation of AMPK, the phosphorylation of ACC, which is a substrate of AMPK, and the expression level of LDLR.
# [3] = test system: NF-κB (p65 phosphorylation); experiment: NF-κB activity by p65 phosphorylation western blot in resistin-treated THP-1 cells; assay type: cell-based, human
# Protocol: To investigate the effect of VS_peptide (SEQ ID NO: 2) on NF-κB activity, p65 phosphorylation was compared between the addition of VS_peptide (SEQ ID NO: 2) and the addition of AA_peptide (SEQ ID NO: 3). THP-1 cells were treated with resistin to activate NF-κB, and VS_peptide (SEQ ID NO: 2) and AA_peptide (SEQ ID NO: 3) were added, and then western blotting using the p-p65 antibody was performed for NF-κB activity.
# [4] = target: T2, binding of resistin and CAP1 in THP-1 cells (Homo sapiens, UniProt Q9HD89); experiment: Immunoprecipitation of resistin/CAP1 from treated THP-1 cells; assay type: cell-based; settings: THP-1 cells treated with resistin and peptide for 12 hours
# T2 construct: endogenous in cells; host or cells: THP-1 cells (CAP1 endogenous)
# T2 sequence (Q9HD89 19-108): T1 sequence (Q9HD89 19-108)
# Protocol: THP-1 cells were treated with resistin or resistin and a peptide for 12 hours, and then lysed with lysis buffer (20 mM Tris pH 7.5, 150 mM NaCl, 1% Triton X-100, 0.25% sodium deoxycholate, 1 mM EDTA, 1mM NaF, 1mM Na3VO4, and protease inhibitor cocktail). The resistin antibody or CAP1 antibody was added to the cell lysates, followed by immunoprecipitation at 4° C. for 3 hours. Mouse IgG was added for control. Protein A/G agarose beads were added to the THP-1 protein and CAP1 antibody complex, followed by incubation, and then through centrifugation, only beads were left and the supernatant was removed. Thereafter, the proteins bound to beads were separated by SDS-PAGE, and after electrophoresis, the gel was transferred onto the polyvinylidene fluoride (PVDF, Millipore), and then blocked with 5% skim milk at room temperature for 30 minutes. […] After the incubation, the membrane was sufficiently washed at least three times for 10 minutes each, and bands were detected using ECL detection kit (Invitrogen, WP20005), and then analyzed. […]
# [5] = Peptide pharmacokinetics by PET imaging of radioisotope-labeled peptide; assay type: in vivo, mice; settings: tail vein injection, PET images at 0-48 hours
# Protocol: VS_peptide and albumin-conjugated VS_peptide were injected at 36-40 μCi per mouse into the tail vein of C57BL/6 normal mice. After the injection, PET images were acquired at intervals of 0, 1, 2, 4, 24, and 48 hours using the GENISYS[…] machine from Sofie Bioscience. After the image acquisition, pharmacokinetic data were obtained by monoexponential fitting using the image analysis program Amide.
# To increase drug delivery efficiency and drug effect duration of VS_peptide (SEQ ID NO: 2), albumin was bound to the peptide. VS_peptide (SEQ ID NO: 2) and albumin-conjugated VS_peptide (SEQ ID NO: 2) were labeled with a radioisotope, and then injected at 36-40 uCi each into the tail vein of male mice aged 8 weeks. PET images were acquired at intervals of 0, 1, 2, 4, 24, and 48 hours, and kinetics of the peptide in the body were observed.
# MDA-MB-231 cells = experiment: Cell migration analysis of resistin-treated breast cancer cells; assay type: cell-based, human; settings: MDA-MB-231, resistin 50 ng/ml, 30 μM and 50 μM, compared with AA_peptide
# Protocol: MDA-MB-231 cells were suspended in DMEM medium (0.1% FBS), and then the suspension was added at a concentration of 1×10^5 cell/ml per well to uniformly spread throughout the upper chamber of 6-well Transwell. In the lower chamber, each of 50 μM VS_peptide (SEQ ID NO: 2) and AA_peptide (SEQ ID NO: 3) was mixed with DMEM medium (0.1% FBS), and resistin was added at 100 ng/ml. Thereafter, the cells were incubated in an incubator at 37° C. in 5% CO2 for 24 hours. The cells penetrating the Transwell were stained using Crystal violet staining, and then quantified using the Image J program.
# MDA-MB-231 cells were suspended in DMEM medium, and then placed in 24-well plates at a concentration of 1×10^5 cell/ml per well. After 50 ng/ml of resistin was placed in each well, VS_peptide (SEQ ID NO: 2) and AA_peptide (SEQ ID NO: 3) were placed at 30 μM and 50 μM, respectively. Thereafter, the cells were incubated in an incubator at 37° C. and 5% CO2 for 6-15 hours. Thereafter, cell migration after 6 hours and 15 hours was observed using a microscope.
# [6] = target: T3, binding of resistin and CAP1 (rhCAP1, mFc-hResistin) (Homo sapiens, UniProt Q9HD89); experiment: Competitive ELISA, mFc-hResistin binding to plate-coated rhCAP1
# T3 sequence (Q9HD89 19-108): T1 sequence (Q9HD89 19-108)
# Protocol: Each well of a 96-well plate were coated with hCAP1 protein at a concentration of 2.5 μg/ml for 12 hours (overnight) at room temperature. Each well was washed two times with phosphate buffered saline (PBS, pH7.4). Each well was blocked with a blocking buffer containing 3% BAS at room temperature for 1 hour. The blocking buffer containing 3% BSA was mixed with 5 ug/ml mFc-hResistin protein and VS_peptide [SEQ ID NO: 2] at various concentrations (10 uM, 30 uM, 100 uM), followed by pre-incubation at room temperature for 1 hour. After the blocking solution was removed from the 96-well plate, 100 μl of the pre-incubated mixture of mFc-hResistin protein and VS_peptide (SEQ ID NO: 2) was dispensed in each well, followed by incubation at room temperature for 2 hours. Upon the completion of the incubation, each well was washed two times with PBS. After the anti-mouse-Fc-HRP antibody was diluted in a blocking buffer containing 3% BSA at 1:1000, 100 μl of the diluted antibody was dispensed in each well, followed by incubation at room temperature for 1 hour. Upon the completion of the incubation, each well was washed two times with PBS. […] After 100 μl of a stop solution was dispensed in each well, and the absorbance was measured at 450 nm using an ELISA reader. […] The resistin bound to the HRP-conjugated mFc antibody was measured by ELISA at an absorbance of 450 nm.
Sequence,inhibition of binding of resistin and CAP1 [1],expression level of LDLR [2],phosphorylation of ACC [2],phosphorylation of AMPK [2],p65 phosphorylation induced by resistin [3],also measured
AAAAGAAAAAAATSSGSDES (Synthetic AAA peptide) [Proline rich regions and VS replaced with A],allowed the strongest binding of resistin and CAP1,,,,,
"PPPPGPPPPPAATSSGSDES (Synthetic AA peptide) [AA_peptide, VS replaced with AA; used as control peptide, reference compound]",failed to inhibit,similar,not increased,not increased,not inhibited,
PPPPGPPPPPVSTSSGSDES [VS_peptide],effectively inhibited,increased,increased,increased,inhibited,"binding of resistin and CAP1 in cells (bands in IP/western blot) [4]: no bands; time the administered medicine remains in the body [5]: ≤ 4 h; amount of cell migration (MDA-MB-231 cells): smaller; OD value (450 nm) of resistin bound to CAP1 ([6]; addition of peptide vs non-addition, 10, 30, 100 uM, dose-dependent): decreased; inhibition at 100 µM ([6]; peptide at 100 μM, read-out: inhibitory effect on binding of resistin and CAP1): ~25%; amount of CAP1 binding to resistin ([1]; peptide at 10, 100 and 500 μM, dose-dependent): reduced"
PPPPGAAAAAVSTSSGSDES (Synthetic pro2A peptide) [Proline rich-2 region replaced with A],inhibited the binding of resistin and CAP1 at similar levels to the VS_peptide,,,,,
AAAAGPPPPPVSTSSGSDES (Synthetic pro1A peptide) [Proline rich-1 region replaced with A],inhibited the binding of resistin and CAP1 at similar levels to the VS_peptide,,,,,
GPPPPPVSTS (Synthetic pep10 peptide) [Shortened peptide based on VS and proline rich-1],inhibited the binding of resistin and CAP1 at similar levels to the VS_peptide,,,,,
